Experimental findings from patent US10479792B2, “Compounds” (GlaxoSmithKline Intellectual Property Development Limited, priority 2015, dated 2019) are described below.

Data set [1] concerns THP-1 cells. Kind of data set: Intramacrophage Leishmania donovani assay (Assay 1), THP-1 cell count (cytotoxicity readout). The data set is classed as cell-based. The following applies: human, 96 h incubation, read-out: cytotoxicity against THP-1 cells, pEC50 (converted). On the procedure: Assay 1. Intramacrophage Leishmania donovani Assay
The intramacrophage Leishmania assay was performed using a modified version of the method described in De Rycker et al. (Antimicrob Agents Chemother. 2013 July; 57(7):2913-22. Comparison of a high-throughput high-content intracellular Leishmania donovani assay with an axenic amastigote assay. De Rycker M, Hallyburton I, Thomas J, Campbell L, Wyllie S, Joshi D, Cameron S, Gilbert I H, Wyatt P G, Frearson J A, Fairlamb A H, Gray D W.). Procedure: 350 nl of compound was pre-dispensed into 384 well sterile intermediary plates. For single point screening, amphotericin B was added to all wells of column 24 as a positive control (final concentration 2 μM) and DMSO to column 23. For potency determinations, ten-point, one in three dilution curves were created with the highest concentration being 50 μM and on each plate a control curve of amphotericin B was included. Controls were as follows: columns 11 and 12: DMSO, columns 23 and 24: amphotericin B (final concentration 2 μM). To the intermediary plates, 35 μl of THP-1 media was added and plates were shaken for >5 min to ensure complete mixing. […] For each well, i) THP-1 cell count (cytotoxicity readout) and ii) average number of amastigotes per cell (potency readout) were calculated, both in terms of pEC50 values.

In a further data set the test system is Trypanosoma brucei. Kind of data set: Trypanosoma brucei cell growth inhibition assay (Assay 3). The data set is classed as cell-based, T. b. brucei, BSF427, VSG118. The following applies: 69 h + 4 h resazurin, read-out: pEC50 value against Trypanosoma brucei (converted). On the procedure:
Assay 3. Trypanosoma brucei Cell Growth Inhibition Assay
Measurement of the ability of the compounds to inhibit trypanosome (T. b. brucei, BSF427, VSG118) cell growth was performed using a modification of the cell viability assay previously described by Raz et al. (Raz B.; Iten M.; Grether-Buhler Y.; Kaminski R.; Brun R. The Alamar Blue assay to determine drug sensitivity of African trypanosomes (T. b. rhodesiense and T. b. gambiense) in vitro. Acta Trop. 1997, 68, 139-147). Compounds were dissolved in DMSO at a top concentration of 10 mM and serially diluted in half log steps to achieve a range of final assay concentrations of 50 μM to 0.5 nM. Compound at each concentration (200-fold final) was added to clear 96-well tissue culture plates in a volume of 1 μL. […] Plates were then read on a BioTek flx800 fluorescent plate reader, and percentage inhibition was compared to the maximum and minimum assay controls. Concentration effect curves were fitted using nonlinear regression using XLFit 4.2 and EC50 values determined.

Data set [2] relates to THP-1 cells. Kind of data set: Leishmania donovani intracellular assay (Assay 5), THP-1 cytotoxicity. The data set is classed as cell-based. The following applies: human, 96 h incubation, read-out: cytotoxicity against THP-1 cells, pEC50 (converted). The procedure:
Assay 5. Leishmania donovani Intracellular Assay
Compounds were dispensed into black 384-well assay plates (Greiner) by acoustic dispensing (LabCyte ECHO). For potency determinations, eleven-point, one in three dilution curves were generated, with a top concentration of 50 μM. THP-1 human monocytes cells were dispensed in T225 tissue culture flasks and differentiated using 30 nM of PMA, after 24 hours they were infected overnight using Leishmania donovani expressing Green Fluorescent Protein (eGFP) amastigotes in the same T225 tissue culture flasks at a multiplicity of infection of 10. Next, any remaining free amastigotes were washed away with PBS and the infected THP-1 cells were harvested by trypsinisation. The infected cells were then plated into 384-well plates containing the compounds to be tested, at 3000 cells per well in RPMI media with 2% FBS and 25 mM Sodium bicarbonate. After 96 h incubation at 37° C. in presence of 5% CO2, the plates were fixed with 4% formaldehyde for 30 minutes, washed with PBS and stained with 0.1 mg/mL of DAPI for 30 minutes and washed again with PBS. The plates were imaged on a Perkin Elmer Opera high-content imaging system using a 20× air objective with two expositions, one for DAPI stain and other for eGFP. Images were analysed using the Acapella building blocks system (Perkin Elmer). The image analysis algorithm first identified the THP-1 nuclei followed by demarcation of the cytoplasm and identification of intracellular amastigotes. This algorithm reported mean number of parasites per THP-1 cell, the percentage of infected THP-1 cells and the total number of THP-1 cells.

On to `O=C(Nc1ccc(F)c(-c2ccn3c(N4CCOCC4)cnc3n2)c1)N1CCCC1` [Example 4, N-(4-fluoro-3-(3-morpholinoimidazo[1,2-a]pyrimidin-7-yl)phenyl)pyrrolidine-1-carboxamide], for which the EC50 at 96 h in the data set on THP-1 cells [1] and in the data set on THP-1 cells [2] was above 50.1 µM throughout. Also, in the data set with Trypanosoma brucei, the EC50 is 0.01 µM.
